According to article PMC8982737, “Discovery of S-217622, a Noncovalent Oral SARS-CoV-2 3CL Protease Inhibitor Clinical Candidate for Treating COVID-19” (Journal of Medicinal Chemistry, 2022):
Where “and” joins values, the source holds several entries; their conditions need not be identical. Identical values can stand only once.

Experiments:
[1] = male, Sprague-Dawley, rat, in vivo, iv
SARS-CoV-2 [2] = assay: Cellular antiviral activity in the presence of mouse serum; format: cell-based; conditions: Severe acute respiratory syndrome coronavirus 2; extrapolated to 100% mouse serum; read-out: protein-adjusted-EC50 (PA-EC50)
in vitro = conditions: African green monkey
in vivo [3] = conditions: female, cynomolgus monkey
SARS-CoV = assay: microbe, parasite or virus in culture; format: cell-based; conditions: Severe acute respiratory syndrome coronavirus, VeroE6/TMPRSS2, read-out: EC50 against SARS-CoV
HIV-1 protease = HIV-1 protease (Human immunodeficiency virus type 1 group M subtype B, UniProt P04585); assay: Enzymatic inhibitory activity against HIV-1 protease; format: biochemical
in vivo [4] = conditions: male, beagle, dog
Rat PK study = conditions: oral 1 μmol/5 mL/kg, n = 2, nonfasted, listed as S-217622
SARS-CoV-2 [5] = assay: microbe, parasite or virus in culture; format: cell-based
cathepsin D [6] = target: T1, cathepsin D (Homo sapiens, UniProt P07339); conditions: at 100 μM
T1 sequence (P07339 65-412): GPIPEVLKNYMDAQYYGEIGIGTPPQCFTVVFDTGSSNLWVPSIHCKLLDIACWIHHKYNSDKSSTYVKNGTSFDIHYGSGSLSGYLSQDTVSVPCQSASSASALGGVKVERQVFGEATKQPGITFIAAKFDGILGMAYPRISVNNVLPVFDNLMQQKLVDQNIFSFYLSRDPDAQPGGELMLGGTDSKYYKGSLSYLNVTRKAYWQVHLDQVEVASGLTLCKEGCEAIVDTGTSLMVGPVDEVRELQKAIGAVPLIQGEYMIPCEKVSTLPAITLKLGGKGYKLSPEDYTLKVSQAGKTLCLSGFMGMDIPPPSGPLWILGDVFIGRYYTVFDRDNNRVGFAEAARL

cathepsin L = cathepsin L (Homo sapiens, UniProt P07711); assay: Human protease enzyme assay: cathepsin L; format: biochemical
cathepsin L, sequence (P07711 114-333): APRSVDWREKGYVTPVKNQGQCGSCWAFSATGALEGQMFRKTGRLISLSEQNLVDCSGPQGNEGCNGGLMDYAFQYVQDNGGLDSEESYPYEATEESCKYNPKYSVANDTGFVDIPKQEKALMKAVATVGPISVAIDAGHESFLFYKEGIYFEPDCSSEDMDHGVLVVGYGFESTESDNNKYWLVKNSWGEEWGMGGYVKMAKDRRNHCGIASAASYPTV

cathepsin D [7] = target: T1, cathepsin D; assay: biochemical; conditions: read-out: Inhibitory activity
chymotrypsin = assay: Human protease enzyme assay: chymotrypsin; format: biochemical
[8] = target: T2, human ether-a-go-go-related gene channel (Homo sapiens, UniProt Q12809); assay: Human ether-a-go-go-related gene inhibition assay (patch clamp, CHO cells); format: cell-based; conditions: in vitro
T2 construct: expressed in transfected cells; host or cells: Chinese hamster ovary (CHO) cells
T2 sequence (Q12809 whole entry): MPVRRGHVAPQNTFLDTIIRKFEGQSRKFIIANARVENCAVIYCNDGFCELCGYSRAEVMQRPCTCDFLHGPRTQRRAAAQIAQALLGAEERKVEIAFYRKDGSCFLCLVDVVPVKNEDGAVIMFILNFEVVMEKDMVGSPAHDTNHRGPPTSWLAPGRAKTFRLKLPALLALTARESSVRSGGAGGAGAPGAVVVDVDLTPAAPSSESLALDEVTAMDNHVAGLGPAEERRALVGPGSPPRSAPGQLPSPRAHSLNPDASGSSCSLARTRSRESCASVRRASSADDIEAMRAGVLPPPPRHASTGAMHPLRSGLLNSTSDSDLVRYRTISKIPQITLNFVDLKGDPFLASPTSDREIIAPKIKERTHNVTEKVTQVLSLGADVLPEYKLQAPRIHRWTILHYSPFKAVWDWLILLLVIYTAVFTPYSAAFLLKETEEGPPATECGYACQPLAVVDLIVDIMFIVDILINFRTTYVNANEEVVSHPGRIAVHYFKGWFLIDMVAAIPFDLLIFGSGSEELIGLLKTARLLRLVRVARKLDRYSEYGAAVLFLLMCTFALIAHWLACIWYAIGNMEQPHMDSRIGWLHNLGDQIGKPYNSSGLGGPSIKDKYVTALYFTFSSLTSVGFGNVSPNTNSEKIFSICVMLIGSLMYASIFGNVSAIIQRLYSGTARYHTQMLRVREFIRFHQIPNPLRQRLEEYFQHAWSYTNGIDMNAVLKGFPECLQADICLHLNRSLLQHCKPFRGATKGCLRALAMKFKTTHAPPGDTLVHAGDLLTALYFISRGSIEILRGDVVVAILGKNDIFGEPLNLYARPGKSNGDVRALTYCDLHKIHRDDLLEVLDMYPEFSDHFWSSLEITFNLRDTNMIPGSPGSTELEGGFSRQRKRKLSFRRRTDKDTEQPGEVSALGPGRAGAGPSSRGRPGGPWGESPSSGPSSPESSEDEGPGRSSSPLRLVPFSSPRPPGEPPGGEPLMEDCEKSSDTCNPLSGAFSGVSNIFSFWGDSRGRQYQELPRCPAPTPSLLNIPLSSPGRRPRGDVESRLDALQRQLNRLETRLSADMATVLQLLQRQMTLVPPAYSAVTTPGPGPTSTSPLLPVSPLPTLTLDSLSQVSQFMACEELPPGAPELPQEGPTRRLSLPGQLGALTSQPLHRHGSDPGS

MERS-CoV = assay: microbe, parasite or virus in culture; format: cell-based; conditions: Middle East respiratory syndrome-related coronavirus, VeroE6/TMPRSS2, read-out: EC50 against MERS-CoV
[9] = system: SARS-CoV-2 Gamma strain (hCoV-19/Japan/TY7-501/2021); format: in vivo, BALB/cAJcl mice
cathepsin G = target: T3, cathepsin G (Homo sapiens, UniProt P08311)
T3 sequence (P08311 21-255): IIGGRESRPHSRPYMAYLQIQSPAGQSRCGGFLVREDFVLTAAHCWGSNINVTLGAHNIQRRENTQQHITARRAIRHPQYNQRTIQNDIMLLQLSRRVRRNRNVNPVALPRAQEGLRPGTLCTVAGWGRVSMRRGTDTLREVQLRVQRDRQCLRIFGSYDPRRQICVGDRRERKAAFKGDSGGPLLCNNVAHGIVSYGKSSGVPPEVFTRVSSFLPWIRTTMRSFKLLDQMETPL

VeroE6/TMPRSS2 cells = conditions: African green monkey
caspase-2 = target: T4, caspase-2 (Homo sapiens, UniProt P42575)
T4 sequence (P42575 1-452): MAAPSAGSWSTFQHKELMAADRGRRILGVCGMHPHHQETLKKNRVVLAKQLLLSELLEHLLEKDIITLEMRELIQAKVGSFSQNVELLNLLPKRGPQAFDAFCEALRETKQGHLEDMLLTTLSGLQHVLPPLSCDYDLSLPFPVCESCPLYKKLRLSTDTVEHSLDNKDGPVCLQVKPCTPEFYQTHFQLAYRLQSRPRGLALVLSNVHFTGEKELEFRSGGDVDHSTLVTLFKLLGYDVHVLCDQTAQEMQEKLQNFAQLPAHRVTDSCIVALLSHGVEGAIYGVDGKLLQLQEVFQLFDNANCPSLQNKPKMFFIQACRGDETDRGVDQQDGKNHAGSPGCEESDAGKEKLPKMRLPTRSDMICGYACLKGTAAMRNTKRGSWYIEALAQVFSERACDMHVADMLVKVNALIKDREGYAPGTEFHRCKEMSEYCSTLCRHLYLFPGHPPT

thrombin = thrombin (Homo sapiens, UniProt P00734); conditions: at 100 μM
Dog PK study = conditions: intravenous 0.1 mg/0.2 mL/kg, n = 2, nonfasted
[10] = mouse, in vivo
HCoV-OC43 = assay: microbe, parasite or virus in culture; format: cell-based; conditions: Betacoronavirus 1, OC43, MRC5; RT-qPCR, MRC-5 cells, mean; read-out: EC90 against HCoV-OC43
HCoV-229E = assay: microbe, parasite or virus in culture; format: cell-based; conditions: Human coronavirus 229E, MRC5; CPE, MRC-5 cells, mean; read-out: EC50 against HCoV-229E
Monkey PK study = conditions: intravenous 0.1 mg/0.2 mL/kg, n = 2, nonfasted

For `Cn1cnc(Cn2c(=O)[nH]/c(=N\c3cc4cn(C)nc4cc3Cl)n(Cc3cc(F)c(F)cc3F)c2=O)n1` [Compound 3, (6E)-6-[(6-Chloro-2-methyl-2H-indazol-5-yl)imino]-3-[(1-methyl-1H-1,2,4-triazol-3-yl)methyl]-1-(2,4,5-trifluorobenzyl)-1,3,5-triazinane-2,4-dione], the “CL (total clearance)” value [1] was 1.70 mL/min/kg, the EC50 (SARS-CoV-2 [2]) was 3.93 µM and 2.09 µg/mL and the CC50 (in vitro) was over 100000 nM. For the same compound, the phototoxicity (BALB/3T3 cells) was “no safety concerns”, the clearance (in vivo [3]; iv, 0.1 mg/kg) was 0.29 mL/min/kg and the bioavailability (in vivo [3]; po) was 106%. For the same compound, the EC50 (SARS-CoV) was 210 nM, the IC50 (HIV-1 protease) was over 100000 nM and the inhibition at 100 µM (HIV-1 protease; at 100 μM) was under 50%. The clearance (in vivo [4]; iv, 0.1 mg/kg) was 0.17 mL/min/kg, the bioavailability (in vivo [4]; po) was 64.7% and the “Oral F (oral bioavailability)” value (Rat PK study) was 97%. For the same compound, the EC50 (SARS-CoV-2 [5]; Severe acute respiratory syndrome coronavirus 2, VeroE6/TMPRSS2, strain hCoV-19/Japan/QHN001/2020 (Alpha, B.1.1.7), mean, read-out: EC50 on cytopathic effects) was 310 nM, the EC50 (SARS-CoV-2 [5]; Severe acute respiratory syndrome coronavirus 2, VeroE6/TMPRSS2, strain hCoV-19/Japan/QHN002/2020 (Alpha, B.1.1.7), mean, read-out: EC50 on cytopathic effects) was 460 nM and the EC50 (SARS-CoV-2 [5]; Severe acute respiratory syndrome coronavirus 2, VeroE6/TMPRSS2, strain hCoV-19/Japan/QK002/2020 (Alpha, B.1.1.7), mean, read-out: EC50 on cytopathic effects) was 330 nM. The EC50 (SARS-CoV-2 [5]; Severe acute respiratory syndrome coronavirus 2, VeroE6/TMPRSS2, strain hCoV-19/Japan/TY7-501/2021 (Gamma, P.1), mean, read-out: EC50 on cytopathic effects) was 500 nM, the EC50 (SARS-CoV-2 [5]; Severe acute respiratory syndrome coronavirus 2, VeroE6/TMPRSS2, strain hCoV-19/Japan/TY7-503/2021 (Gamma, P.1), mean, read-out: EC50 on cytopathic effects) was 430 nM and the EC50 (SARS-CoV-2 [5]; Severe acute respiratory syndrome coronavirus 2, VeroE6/TMPRSS2, strain hCoV-19/Japan/TY8-612/2021 (Beta, B.1.351), mean, read-out: EC50 on cytopathic effects) was 400 nM. For the same compound, the EC50 (SARS-CoV-2 [5]; Severe acute respiratory syndrome coronavirus 2, VeroE6/TMPRSS2, strain hCoV-19/Japan/TY11-927-P1/2021 (Delta, B.1.617.2), mean, read-out: EC50 on cytopathic effects) was 410 nM, the EC50 (SARS-CoV-2 [5]; Severe acute respiratory syndrome coronavirus 2, VeroE6/TMPRSS2, strain hCoV-19/Japan/TY38-873/2021 (Omicron, B.1.1.529), mean, read-out: EC50 on cytopathic effects) was 290 nM and the EC50 (SARS-CoV-2 [5]; Severe acute respiratory syndrome coronavirus 2, CPE inhibition assay, VeroE6/TMPRSS2 cells, read-out: VeroE6/TMPRSS2 EC50 (antiviral activity)) was 370 nM. For the same compound, the Inhibitory activity (cathepsin D [6]) was “no inhibitory activity”, the IC50 (cathepsin L) was over 100000 nM and the Inhibitory activity (cathepsin L; at 100 μM) was “no inhibitory activity”. For the same compound, the inhibition at 100 µM (cathepsin L; at 100 μM, read-out: Inhibitory activity) was under 50%, the inhibition at 100 µM (cathepsin D [7]) was under 50% and the IC50 (chymotrypsin) was over 100000 nM. For the same compound, the ether-a-go-go-related gene inhibition [8] was “no safety concerns”, the EC50 (MERS-CoV) was 1400 nM and the lung viral titers ([9]; […], near lower limit of quantification) was about 1.80. For the same compound, the “effect on intrapulmonary (lung) viral titers” value ([9]; mouse, in vivo) was “reduced the intrapulmonary viral titers dose-dependently”, the IC50 (cathepsin G) was over 100000 nM and the clastogenicity (TK6 cells) was “no safety concerns”. The CC50 (VeroE6/TMPRSS2 cells) was over 100000 nM, the IC50 (caspase-2; caspase 2) was over 100000 nM and the Inhibitory activity (caspase-2; caspase 2, at 100 μM) was “no inhibitory activity”. The Inhibitory activity (thrombin) was “no inhibitory activity”, the t1/2 (Dog PK study; listed as S-217622) was about 30 h and the half-life (Dog PK study; male, beagle, in vivo, iv, 0.1 mg/kg, t1/2, dog) was 29.5 h. For the same compound, the “simulated plasma concentration over time” value ([10]; BALB/cAJcl, 16 mg/kg) was “above the protein-adjusted-EC50”, the plasma concentration [10] was “increased dose-dependently” and the EC90 (HCoV-OC43) was 74 nM. The EC50 (HCoV-229E) was 5500 nM, the half-life (Monkey PK study; female, cynomolgus monkey, in vivo, iv, 0.1 mg/kg, t1/2, monkey) was 10 h and the t1/2 (Monkey PK study; monkey, listed as S-217622) was “approximately 10 h”.
